Tests used:
COMT = target: T1, COMT (Homo sapiens, UniProt P21964); assay: Assay of COMT activity: methylation of catechol estrogens by purified recombinant His-COMT; assay type: biochemical; settings: substrate of COMT, FIG. 9
T1 construct: made in house; host or cells: Escherichia coli DH5alphaF'Iq
T1 sequence (P21964 1-221 isoform P21964-2): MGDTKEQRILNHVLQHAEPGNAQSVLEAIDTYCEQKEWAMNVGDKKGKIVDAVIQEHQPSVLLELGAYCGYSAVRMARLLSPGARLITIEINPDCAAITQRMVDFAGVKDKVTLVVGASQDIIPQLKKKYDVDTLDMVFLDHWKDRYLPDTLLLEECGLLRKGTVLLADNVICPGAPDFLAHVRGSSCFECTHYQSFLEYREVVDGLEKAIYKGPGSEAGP
Description: Assay of COMT Activity. Purified recombinant His-COMT (300 pmol) was reconstituted in 0.5 ml of 100 mM KPO4, pH 7.4, containing 5 mM MgCl2, 10 mM (β-mercaptoethanol, and 200 μM SAM. Reactions were initiated by adding varying concentrations of each individual catechol estrogen (2, 3, 6, 9, 12, 15, 20, 40, 60, 80, and 100 μM). Blanks contained all compounds except SAM. Reactions proceeded for 10 min at 37° C. with gentle shaking and then were terminated by addition of 2 ml CH2Cl2. To determine COMT activity in breast cancer cells, ZR-75 and MCF-7 cells were harvested at confluency and homogenized in 100 mM KP04, pH 7.4, 5 mM MgCl2, 10 mM β-mercaptoethanol. Following ultracentrifugation of the cell homogenate (110,000 g, 30 min, 4° C.), the supernatant cytosol was divided into aliquots for ICELISA, protein determination (BCA assay; Pierce, Rockford, Ill.), and COMT assay. The latter was carried out in the presence of 200 μM SAM and 100 μM catechol estrogen for 20 min at 37° C. and then terminated by addition of CH2Cl2. The concentration of endogenous catechol and methoxy estrogens was below the limit of detection by gas chromatography/mass spectrometry.
Extraction and Gas Chromatography/Mass Spectrometry Analysis of Catechol Estrogens. A deuterated internal standard (100 μl of 8 mg/liter E2-d4 in methanol) was added and all estrogens extracted into the CH2Cl2 by vortex mixing for 30 s. 1.5 ml of the CH2Cl2 fraction was evaporated to dryness under air and volatile TMS derivatives prepared by heating the residue with 100 μl of 50% NO-bis(trimethylsilyl)trifluoroacetamide/1% trimethyl chlorosilane in acetonitrile at 56° C. for 30 min. The TMS derivatives of the estrogen metabolites were separated by gas chromatography (H—P 5890, Hewlett-Packard, Wilmington, Del.) on a 5% phenyl methyl silicone stationary phase fused silica capillary column (30 m×0.2 mm×0.5 μm film, HP5; Hewlett-Packard). Helium carrier gas was used at a flow of 1 ml/min. The injector was operated at 250° C., with 2 μl injected in the splitless mode, with a purge (60 ml/min helium) time of 0.6 min. The oven temperature was held at 180° C. for 0.5 min, then raised at 6° C./min to 250° C. where it was held for 17 min, then raised to 300° C. at 8° C./min to give a total run time of 35.42 min. This program permitted adequate separation of a wide range of estrogen metabolites. Retention times (in min) for the TMS derivatives were E1 20.13, E2 and E2-d4 21.89, 4-MeOE1 23.52, 2-MeO-3-MeOE1 (underivatized) 23.75, 2-OH-3-MeOE1 24.87, 2-MeOE1 25.2, 4-MeOE2 25.78, 2-OHE1 and 2-MeO-3-MeOE2 26.19, 2-OH-3-MeOE2 26.9, 2-MeOE2 27.18, 4-OHE1 27.27, 6a-OHE2 27.29, 2-OHE2 27.44, 4-OHE2 28.06, E3 28.38. The E1 mass spectrometer (H—P 5970) was operated in the selected ion monitoring mode from 18 to 30 min. Ions monitored were TMS-E1 342, 257, 343; TMS2-E2-d4 420, 421, 287; TMS2-E2 416, 417, 285; TMS-4-MeOE1, TMS-2-OH-3-MeOE1, TMS-2-MeOE1 and TMS-3-MeO-4-OHE1 372, 373, 342; 2-MeO-3-MeOE1 314, 315, 229; TMS2-4-MeOE2, TMS2-2-OH-3-MeOE2, TMS2-2-MeOE2 and TMS2-3-MeO-4-OHE2 446, 447, 315; TMS2-2-OHE1 430, 431, 432; TMS-2-MeO-3-MeOE2 388, 389, 257; TMS2-4-OHE1 430, 431, 345; TMS2-6α-OHE2 414, 283, 309; TMS3-2-OHE2 and TMS3-4-OHE2 504, 505, 373; TMS3-E3 504, 505, 311 (FIG. 7). The instrument was calibrated by simultaneous preparation of an 11-point calibration over the range 0-22 nmol/tube of each compound. Sensitivity was determined to be between 0.02 and 0.04 nmol/tube (400-800 finol on column) for the various compounds. […] Absolute extraction efficiency for E2,2-OH-E2 and 4-OH-E2 at 3.5 nmol/tube was 119, 96, and 107% assessed by comparison to injections of spiked solvent samples onto the gas chromatograph. Internal standard added prior to extraction compensated for deviation from 100% recovery for all investigated compounds.
Statistical Analysis. […]

renal DNA = settings: hamster, in vivo; cited from earlier work

SMILES: C[C@]12CC[C@@H]3c4ccc(O)c(O)c4CC[C@H]3[C@@H]1CC[C@@H]2O [Variant 4-OHE2]
- pattern of the rates of methylation versus substrate concentration (COMT): sigmoid curve pattern
- levels of the oxidized base 8-hydroxy-deoxyguanosine in renal DNA (renal DNA): significantly increased

Source: patent US20050255504A1, “Method of detecting an increased susceptibility to breast cancer” (priority 2004, published 2005)
